Patent publication US20030118510A1 (priority 2001, published 2003)

Columns and labels:
blood glucose [1] = assay: Blood glucose following intratracheal administration of 2K PEG insulin in rats (Example 12, P-2002-010); assay type: in vivo, male rats; details: i.t.
From the text: Fourteen (N=7/Group) fasted male rats (Hilltop Lab Animals, Scottsdale, Pa. (300-350 g)) with indwelling jugular vein catheters (JVC) were used for this study. […] Animal 2-3 was dropped from the study due to a clogged catheter.

blood glucose [2] = details: i.t.
Procedure: (§1) The rats were lightly anesthetized using inhaled 3.0-5.0% Isoflurane (Abbott Laboratories) mixed with oxygen for approximately 5 minutes in a plexiglass anesthesia chamber. Administration was accomplished by insertion of a gavage needle (Popper & Sons Inc.; 18×3″ W2-¼ mm ball, New Hyde Park, N.Y. 11040) fitted into a 1 mL syringe into the mouth of the rat down the trachea to just above the main carina. When inserting the gavage needle into the trachea, proper insertion was detected by feeling for the roughness of the cartilage rings under the skin of the throat using the ball of the gavage needle. Doses were administered into the lungs utilizing this method, and followed by removal of the gavage needle.
(§2) Fourteen (N=7/Group) fasted male rats (Hilltop Lab Animals, Scottsdale, Pa. (300-350 g)) with indwelling jugular vein catheters (JVC) were used for this study.

blood glucose [3] = details: rats, 20, 30, 40 μg/animal
[4] = Intratracheal administration of 750-2 PEG insulin in rats (Example 11, P-2002-003)
Procedure: as §1, §2
(§3) The in-vivo rat study was conducted essentially as described in Example 8 above.
Absolute bioavailability was calculated as follows: [formula]

blood glucose [5] = assay: Blood glucose following intratracheal administration of 750-1 PEG insulin in rats (Example 10, P-2002-001); assay type: in vivo, male rats; details: i.t.
Procedure: as §1, §2
The in-vivo intratracheal rat study was conducted essentially as described in Example 8 above.

blood glucose [6] = assay: Blood glucose following intratracheal administration of 750-1 PEG insulin in rats (Example 9, P-2001-025); assay type: in vivo, male rats; details: i.t.
Procedure: as §1, §2, §3

2K PEG insulin: insulin pegylated in non-site specific (random) fashion with linear mPEG-succinimidyl propionate ~2,000 Daltons; mixture of mono and di-pegylated product
glucose levels at time points past about 6 hours compared with non-pegylated insulin (blood glucose [1]; 600 μg, 900 μg and 1200 μg per animal): suppressed significantly below those of non-pegylated insulin | dose response of decrease in blood glucose concentration (blood glucose [1]; 300-1200 μg/animal): Good dose response | time point at which maximum glucose suppression was achieved (blood glucose [1]; Example 12): about 3 hours

N^αB1-Methoxypoly(ethylene glycol)5K- propionamido-insulin [5K PEG insulin]
lowering of blood glucose compared with non-pegylated insulin (blood glucose [2]; 150 μg/animal vs non-pegylated insulin 40 μg/animal): less effective than non-pegylated insulin | lowering of blood glucose when administered to the lung (blood glucose [2]; 150 μg/animal, male rats): effective in lowering blood glucose | bioactivity (ability to lower blood glucose) (blood glucose [3]; i.v.): possesses bioactivity | glucose levels following i.v. administration (blood glucose [3]): dose dependent decrease

750-1 PEG insulin: 750 PEG insulin composition prepared at molar ratio of PEG reagent (mPEG-SPA-750) to insulin of 7:1
mean serum insulin and mean blood glucose concentrations following intratracheal instillation (FIG. 10, FIG. 11) ([4]; i.t., 80 μg/animal): Results similar to those in Examples 9 and 10 | duration of glucose suppression (blood glucose [5]; Example 10, 80 and 160 μg/animal): > 25 h | glucose levels at 8 hours, times lower than for unmodified insulin (blood glucose [5]; Example 10, 8 hours): about 1.5 times | glucose suppression over the 12 hour period compared with unmodified insulin (blood glucose [6]; Example 9): significantly increased | onset of action (suppression of glucose) (blood glucose [6]; Example 9): rapid onset of action comparable to native insulin | time at which glucose levels had not yet returned (duration of glucose suppression) (blood glucose [6]; Example 9): > 12 h | time to reach maximum glucose lowering (blood glucose [6]; Example 9, 100 μg dose): ≥ 6 h | time to reach maximum glucose lowering (blood glucose [6]; Example 9, 300 μg dose): ≥ 8 h | time to reach maximum glucose lowering (blood glucose [6]; Example 9, 500 μg dose): at least 4 hours

750-2 PEG insulin: 750 PEG insulin composition prepared at molar ratio of PEG reagent (mPEG-SPA-750) to insulin of 3:1
TMax ([4]; rat, in vivo): 1.22 h
